Among the data in PubChem BioAssay (NCI) are TGI values, retold here.

SMILES strings stand for the structures.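 Cells were grown in 96-well plates and exposed to each compound for 48 hours at five concentrations; endpoints were interpolated linearly between bracketing concentrations, or set to the highest concentration if not reached. TGI denotes the concentration required for complete inhibition of growth.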 Bounds are passed on as bounds.

Test systems include A549 NSCLC; MDA-N; HS 578T breast; TK-10 renal; UACC-62 melanoma; SNB-19 CNS; SN12C renal; UO-31 renal; LOX IMVI melanoma; CAKI-1 renal; NCI-H460 lung; UACC-257 melanoma.
What all share (experiment): NCI anticancer screen, dose series, 48 h

As for `O=c1c(Cc2ccc(Cl)cc2)nnc2sc(-c3ccc(-c4ccc(Cl)cc4Cl)o3)nn12`, the TGI with A549 NSCLC, with MDA-N, in the assay with HS 578T breast, in the assay on TK-10 renal, in the assay on UACC-62 melanoma and with SNB-19 CNS was over 100 µM in each case. Besides, the TGI in the assay on SN12C renal, in the assay on UO-31 renal, in the assay with LOX IMVI melanoma, in the assay with CAKI-1 renal, in the assay on NCI-H460 lung and in the assay with UACC-257 melanoma was over 100 µM each time.

Take `C/C(=C/CC[C@]1(CO)CC[C@]2(C)[C@H](CC[C@@H]3[C@@]4(C)CC[C@H](OC5OC(CO)C(O)C(O)C5OC5OC(CO)C(O)C(O)C5O)C(C)(C)[C@@H]4CC[C@]32C)[C@H]1O)CO` (stereo not given in full): the TGI in the assay on A549 NSCLC, in the assay with MDA-N, in the assay on HS 578T breast, in the assay with TK-10 renal, with UACC-62 melanoma and with SNB-19 CNS was over 100 µM each time. The TGI in the assay with SN12C renal, in the assay with UO-31 renal, in the assay with LOX IMVI melanoma, in the assay with CAKI-1 renal, with NCI-H460 lung and in the assay on UACC-257 melanoma was over 100 µM in each case.

As to `COC(=O)Nc1nc2ccc(S(=O)(=O)N3CCOCC3)cc2[nH]1`, the TGI in the assay with A549 NSCLC, in the assay with MDA-N, in the assay on HS 578T breast, with TK-10 renal, in the assay on UACC-62 melanoma and in the assay on SNB-19 CNS was over 100 µM throughout. Also, the TGI with SN12C renal, in the assay on UO-31 renal, with LOX IMVI melanoma, in the assay with CAKI-1 renal, in the assay with NCI-H460 lung and in the assay on UACC-257 melanoma was over 100 µM throughout.

With `CC(C)=CC(=O)c1[nH]c2ccccc2c1CC(=O)NCCc1cncn1C`, the TGI in the assay on A549 NSCLC, in the assay with MDA-N, in the assay with HS 578T breast, with TK-10 renal, in the assay with UACC-62 melanoma and in the assay with SNB-19 CNS was over 100 µM each time. In addition, the TGI with SN12C renal is over 100 µM; in the assay with UO-31 renal, 47.6 µM; in the assay on LOX IMVI melanoma, over 100 µM; in the assay with CAKI-1 renal, over 100 µM; with NCI-H460 lung, over 100 µM; in the assay on UACC-257 melanoma, over 100 µM.

As for `O=C(SCc1cccc2ccccc12)c1ccc(Cl)cc1`, the TGI with A549 NSCLC, in the assay on MDA-N, in the assay on HS 578T breast, in the assay on TK-10 renal, with UACC-62 melanoma and in the assay on SNB-19 CNS was over 100 µM in each case. Moreover, the TGI in the assay on SN12C renal, with UO-31 renal, with LOX IMVI melanoma, in the assay with CAKI-1 renal, in the assay with NCI-H460 lung and with UACC-257 melanoma was over 100 µM throughout.
